Assay results published in US9597417B2, “Compositions and methods to evaluate hepatobiliary/gastrointestinal health, enterohepatic circulation, and drug interactions” (The United States of America as represented by the …, priority 2013, dated 2017).
Converted amounts (≈) assume the structure as drawn. “And” between values parts separate entries of the source, which are not always exact repeats. Identical values can stand only once. “Also recorded” adds a separate entry of the source. Like-named read-outs stand apart in the source and are kept apart here.

Key:
[1] = Murine gallbladder imaging (mouse 6), 19F MRI and LC/MS/MS; type: in vivo, C57BL/6 mice; conditions: for concentration at 8.2 h: male, mouse 6, after imaging
[2] = biological target: T1, human Na+/taurocholate cotransporting polypeptide (hNTCP) (Homo sapiens, UniProt Q14973); experiment: Inhibition of taurocholate uptake by NTCP in stably transfected NTCP-HEK cells; type: cell-based
T1 sequence (Q14973 1-349): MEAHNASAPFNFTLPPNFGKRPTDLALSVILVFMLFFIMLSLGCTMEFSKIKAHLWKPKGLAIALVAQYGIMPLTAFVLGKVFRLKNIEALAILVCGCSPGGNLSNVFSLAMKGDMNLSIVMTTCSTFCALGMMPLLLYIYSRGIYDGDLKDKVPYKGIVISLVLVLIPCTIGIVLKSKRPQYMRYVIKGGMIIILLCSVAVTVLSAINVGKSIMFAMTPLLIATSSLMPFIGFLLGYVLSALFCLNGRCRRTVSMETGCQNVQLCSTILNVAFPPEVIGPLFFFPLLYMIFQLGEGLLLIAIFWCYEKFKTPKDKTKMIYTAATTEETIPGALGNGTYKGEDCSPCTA

[3] = biological target: T2, hNTCP (sodium-independent passive uptake) (Homo sapiens, UniProt Q14973); experiment: Uptake of substrate by NTCP in NTCP-HEK cells; type: cell-based; conditions: human; NTCP-HEK cells, sodium free buffer; read-out: passive permeability (Pp)
T2 sequence (Q14973 1-349): T1 sequence (Q14973 1-349)

[4] = biological target: T1, human Na+/taurocholate cotransporting polypeptide (hNTCP); experiment: Uptake of substrate by NTCP in NTCP-HEK cells; type: cell-based; conditions: NTCP uptake
[5] = biological target: T3, hASBT (sodium-independent passive uptake) (Homo sapiens, UniProt Q12908); experiment: Uptake of substrate by ASBT in ASBT-MDCK cells; type: cell-based; conditions: human; ASBT-MDCK cells, sodium free buffer; read-out: passive permeability (Pp)
T3 sequence (Q12908 1-348): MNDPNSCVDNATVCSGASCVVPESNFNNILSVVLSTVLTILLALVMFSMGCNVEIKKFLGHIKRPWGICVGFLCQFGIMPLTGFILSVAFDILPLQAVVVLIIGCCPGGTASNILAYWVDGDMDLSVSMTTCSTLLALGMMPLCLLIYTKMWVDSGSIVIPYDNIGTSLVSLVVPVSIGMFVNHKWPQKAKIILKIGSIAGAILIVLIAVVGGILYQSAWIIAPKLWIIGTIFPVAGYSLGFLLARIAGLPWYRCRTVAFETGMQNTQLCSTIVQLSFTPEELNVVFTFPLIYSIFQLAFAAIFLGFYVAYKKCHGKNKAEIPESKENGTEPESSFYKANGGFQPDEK

[6] = biological target: T4, human apical sodium dependent bile acid transporter (hASBT) (Homo sapiens, UniProt Q12908); experiment: Uptake of substrate by ASBT in ASBT-MDCK cells; type: cell-based; conditions: ASBT uptake
T4 sequence (Q12908 1-348): T3 sequence (Q12908 1-348)

[7] = Oral disposition characterization: pilot study in mice; conditions: for concentration at 7 h: male, C57BL/6, mouse, po
[8] = Disposition in Asbt knockout (Slc10a2-/-) and wild-type mice; type: in vivo; conditions: for gallbladder concentration / concentration at 7 h: n=4, 7 h after gavage 150 mg/kg, ±SEM; for gallbladder concentration: LC/MS/MS; for concentration at 7 h: mouse, oral, 150 mg/kg
Experimental: Asbt-deficient (Slc10a2-/-) mice were obtained from a colony maintained at the Wake Forest School of Medicine. […] Gallbladder, liver, and plasma samples were collected at 7 h after dosing, and tissues were processed as described above and analyzed by LC/MS/MS.

Solubility in buffer = type: physicochemical; conditions: phosphate buffer, aqueous buffer, thermodynamic from solid; pH 6.8, room temperature, overnight, n=3, ±SEM
Experimental: Five (5) mg of compound was added to silanized centrifuge tubes containing 100 μL phosphate buffer at pH 6.8 (n=3), shaken, and left overnight at room temperature. […] Supernatant was diluted 10,000-fold with 1:1 ACN:water and analyzed by LC/MS/MS.

[9] = biological target: T4, human apical sodium dependent bile acid transporter (hASBT); experiment: Inhibition of taurocholate uptake by ASBT in stably transfected ASBT-MDCK cells; type: cell-based
[10] = In vitro stability in 0.1 M HCl, rat plasma, rat liver s9 fraction and simulated intestinal fluid; conditions: 37° C.
[11] = biological target: choloylglycine hydrolase from Clostridium perfringens (Clostridium perfringens, UniProt P54965); conditions: 2 mM compound, 15 U CGH, pH 5.6, 37° C., ±SEM
Sequence of choloylglycine hydrolase from Clostridium perfringens (P54965 whole entry, looked up): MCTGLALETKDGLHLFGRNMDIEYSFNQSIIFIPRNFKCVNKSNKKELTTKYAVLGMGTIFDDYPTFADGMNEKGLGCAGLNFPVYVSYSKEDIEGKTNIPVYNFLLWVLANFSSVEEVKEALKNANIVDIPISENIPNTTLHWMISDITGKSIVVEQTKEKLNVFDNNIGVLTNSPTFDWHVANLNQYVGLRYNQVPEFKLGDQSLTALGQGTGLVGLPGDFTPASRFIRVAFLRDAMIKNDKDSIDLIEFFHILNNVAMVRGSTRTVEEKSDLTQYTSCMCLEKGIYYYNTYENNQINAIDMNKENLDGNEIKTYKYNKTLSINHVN

[12] = biological target: T1, human Na+/taurocholate cotransporting polypeptide (hNTCP); conditions: literature / historic data, same cell line; read-out: NTCP Km; cited from earlier work
[13] = substrate: [H][C@@]12C[C@H](O)CC[C@]1(C)[C@@]1([H])C[C@H](O)[C@@]3(C)[C@@]([H])(CC[C@]3([H])C(C)CCC(=O)N(CCNC(=O)C(F)(F)F)CC(=O)O)[C@]1([H])[C@H](O)C2; experiment: Uptake of substrate by NTCP in NTCP-HEK cells; type: cell-based, human; conditions: other: uptake, 0-200 uM donor, hNTCP-HEK cells, ±SEM; 37.0 °C
[14] = substrate: [H][C@@]12C[C@H](O)CC[C@]1(C)[C@@]1([H])C[C@H](O)[C@@]3(C)[C@@]([H])(CC[C@]3([H])C(C)CCC(=O)N(CCNC(=O)C(F)(F)F)CC(=O)O)[C@]1([H])[C@H](O)C2; experiment: Uptake of substrate by ASBT in ASBT-MDCK cells; type: cell-based, human; conditions: other: uptake, 0-200 uM donor, hASBT-MDCK cells, ±SEM; 37.0 °C
[15] = individual mice 1-5, 7 h after oral 150 mg/kg, LC/MS/MS, 150 mg/kg

For `CC(CCC(=O)N(CCNC(=O)C(F)(F)F)CC(=O)O)[C@H]1CC[C@H]2[C@@H]3[C@H](O)C[C@@H]4C[C@H](O)CC[C@]4(C)[C@H]3C[C@H](O)[C@]12C` (stereo partly shown) [CA-sar-TFMA, Cholic acid-sarcosine-trifluoro-N-methyl-acetamide], which concentration at 8.2 h ([1]; C57BL/6, liver, oral 150 mg/kg, read-out: liver concentration) is on record?
Its concentration at 8.2 h is 7660 nM.

What about the concentration at 8.2 h ([1]; C57BL/6, plasma, oral 150 mg/kg, read-out: plasma concentration) of the same molecule?
The concentration at 8.2 h was 870 nM.

And the “LC/MS/MS gallbladder concentration, fold lower than by MRI” value ([1]; mouse 6)?
The value was 2.3 fold.

And the “gallbladder concentration by 19F MRI (gallbladder ROI normalized to phantom ROI)” value ([1]; mouse 6, 6.2-8.2 h after oral gavage of 150 mg/kg)?
Its value is 34.2 mM.

What about the “gallbladder concentration by LC/MS/MS” value ([1]; mouse 6, after imaging and euthanasia, oral 150 mg/kg) of the same molecule?
The value was 14.8 mM.

What about the Ki [2] of the same molecule?
The Ki was 2.64 ± 0.55 µM.

What about the Papp [3] of the same molecule?
Its Papp is 0.043 ×10⁻⁶ cm/s.

What about the “normVmax (normalized to taurocholate Vmax on the same occasion)” value [4] of the same molecule?
The value was 0.24.

And the Papp [5]?
The Papp was 0.21 ×10⁻⁶ cm/s.

And the “normVmax (normalized to taurocholate Vmax on the same occasion)” value [6]?
The value was 1.50.

And the “Gallbladder Conc.” value [7, 15]?
Its value is 16.5 mM (2×) and 25.0 mM and 17.2 mM and 16.9 mM.

And the “Liver Conc.” value [7, 15]?
Its value is 20.8 µM and 16.0 µM and 12.9 µM and 9.5 µM and 13.5 µM.

What about the “Plasma Conc.” value [7, 15] of the same molecule?
Its value is 1490 nM and 1810 nM and 940 nM and 1470 nM.

And the concentration at 7 h ([7]; liver, 150 mg/kg, Average liver concentration, mean of mice 1-5, 7 h after oral 150 mg/kg, ±SEM)?
Its concentration at 7 h is 14500 ± 600 nM.

What about the concentration at 7 h ([7]; plasma, 150 mg/kg, Average plasma concentration, mean of mice 1-5, 7 h after oral 150 mg/kg, ±SEM) of the same molecule?
Its concentration at 7 h is 1400 ± 140 nM.

And the concentration at 7 h ([7]; plasma, 150 mg/kg, Plasma Conc., individual mice 1-5, 7 h after oral 150 mg/kg, LC/MS/MS)?
Its concentration at 7 h is 1310 nM.

And the Average gallbladder concentration ([7]; mean of mice 1-5, 7 h after oral 150 mg/kg, ±SEM)?
The Average gallbladder concentration was 18.4 ± 1.6 mM.

What about the “accumulation in liver and plasma, fold lower than in gallbladder” value ([7]; on average, 7 h after oral 150 mg/kg) of the same molecule?
The value was “at least 1,000 fold”.

And the “gallbladder concentration, fold higher in WT than in knockout mice” value ([8]; 7 h after gavage 150 mg/kg)?
Its value is 16.1 fold.

And the gallbladder concentration ([8]; Asbt knockout (Slc10a2-/-) mice)?
The gallbladder concentration was 0.41 ± 0.14 mM.

And the concentration at 7 h ([8]; liver, Asbt knockout mice, read-out: Liver concentration)?
The concentration at 7 h was 900 ± 30 nM.

And the concentration at 7 h ([8]; liver, WT mice, read-out: Liver concentration)?
The concentration at 7 h was 4970 ± 1470 nM.

What about the concentration at 7 h ([8]; plasma, Asbt knockout mice, read-out: Plasma concentration) of the same molecule?
Its concentration at 7 h is 220 ± 90 nM.

And the concentration at 7 h ([8]; plasma, WT mice, read-out: Plasma concentration)?
Its concentration at 7 h is 3800 ± 4150 nM.

And the gallbladder concentration ([8]; wild-type (WT) mice)?
Its gallbladder concentration is 6.61 ± 0.98 mM.

And the solubility (Solubility in buffer)?
Its solubility is 33500 ± 1600 µM (≈ 20.3 mg/mL).

And the Ki [9]?
Its Ki is 21.5 ± 4 µM.

What about the “stability: concentration at t=4 h vs initial concentration” value (shortened to “stability … vs initial concentration”) ([10]; 0.1 M HCl, 5 μM) of the same molecule?
Its value is “no evidence of degradation; also recorded: not different from initial concentration”.

And the “stability … vs initial concentration” value ([10]; rat plasma, 5 μM)?
The value was “no evidence of degradation; also recorded: not different from initial concentration”.

And the “stability … vs initial concentration” value ([10]; simulated intestinal fluid with pancreatic enzymes (SIF), pH 7.5, 5 μM)?
Its value is “no evidence of degradation; also recorded: not different from initial concentration”.

And the “compound remaining after 4 h” value [11]?
Its value is 103.9±2.9%.

For `C[C@H](CCC(=O)NCCS(=O)(=O)O)[C@H]1CC[C@H]2[C@@H]3[C@H](O)C[C@@H]4C[C@H](O)CC[C@]4(C)[C@H]3C[C@H](O)[C@]12C` [taurocholate], which Km [12] is on record?
The Km was 5.31 µM.

B1: human Na+/taurocholate cotransporting polypeptide (hNTCP) (Homo sapiens) (protein)
chain: T1 sequence (Q14973 1-349)
Which Km [13] does the source give for B1 here?
The Km was 2.19 ± 0.63 µM.

B2: human apical sodium dependent bile acid transporter (hASBT) (Homo sapiens) (protein)
chain: T3 sequence (Q12908 1-348)
With B2 as the molecule, how does the Km [14] read?
Its Km is 73.2 ± 7.0 µM.
